For data set [1] the following is noted: mouse, in vivo.
Description: From the orthotopic HCC and liver damage mouse models described above, blood samples were collected at 1, 4, 7 and 24 hours after once-daily oral administration of 5, 10 and 20 mg/kg regorafenib, respectively, for 5 days. Anti-PD1 antibody was given on days 1 and 4 with dose of 10 mg/kg by intraperitoneal injection. Blood samples were drawn from four to five animals per sampling time point. Regorafenib and its active metabolites M-2, M-4 and M-5 were analyzed in plasma samples using a validated bioanalytical liquid chromatography-tandem mass spectrometry.[25 33] Pharmacokinetic (PK) parameters were derived from the area under the plasma concentration versus time curve (AUC) using a non-compartmental analysis.
In addition, we evaluated PK parameters in HCC-bearing mice after regorafenib administration alone at doses of 5, 10 and 20 mg/kg or in combination with anti-PD1 therapy at the 10 mg/kg regorafenib dose for 5 days to achieve a steady state.
The subject of a further data set is RIL-175 cells. In words: CXCL10 secretion by RIL-175 cells in vitro (ELISA). Type of data set: cell-based, mouse. Particulars: 2μM for 36hr; ELISA; n=6. From the text:
To determine if CXCL10 was produced by murine HCC cells in response to regorafenib treatment, we next cultured RIL-175 cells with various concentration of regorafenib in vitro and measured the CXCL10 levels by ELISA. […]
treated by regorafenib as standard of care (HCC) (using the DFCI Protocol No.: 13-416 “Collection of Specimens and Clinical Data for Patients with Known or Suspected Solid Tumors”, PI, Dr. Juric, MGH) or in a phase I clinical trial of regorafenib monotherapy in acute myeloid leukemia (AML) patients (ClinicalTrials.gov Identifier: NCT03042689, PI, Hobbs, MGH). Both protocols have been IRB approved, and written consent was obtained from all patients.
Protein analyses. Western blotting was performed using antibodies against Stat1 (D1K9Y), phosphorylated (p)-Stat1 (Tyr701) (D4A7), Stat3 (79D7), p-Stat3 (Ser727) (Cell Signaling Technology, Danvers, MA), and IFN-γ (EPR1108) (Abcam, Cambridge, MA). Multiplexed protein array analysis was performed for protein extracts from whole tumors, using V-PLEX Proinflammatory Panel 1 Mouse Kit, V-PLEX Cytokine Panel 1 Mouse Kit and V-PLEX […] (Meso-Scale Discovery, Rockville, MD). For cell supernatant collection, 1x10^6 of RIL-175 cells were cultured in DMEM medium with 2% FBS and regorafenib was given in a various dose.
Supernatant was collected after 36hr of incubation and multiplexed protein array analysis was done using the same kit above.
Flow cytometry analysis. Tumor tissues were extracted from the mice, weighted and minced with a scalpel. Hank’s buffered salt solution (HBSS) with 1.5mg/ml of collagenase and hyaluronidase was added to the minced tissues and incubated for 30 min at 37°C. After incubation, digested tissues were passed through the 70μm cell strainer and washed with PBS with 2% BSA. After preparation, cells were suspended in 2ml of PBS with 2% BSA, then counted using a cell counting plate (Kova slide) (if the final concentration of cell exceeded 10^7 cells/ml, a dilution factor was applied). One hundred microliters of this suspension were used per subsequent flow cytometry staining. […]

In data set [2] the test system is advanced HCC. Further details: method as in ref 14 15. The note with it: previously treated patients with advanced HCC; phase I/II trial data; ref 14 15; cited from earlier work.
The test system of data set [3] is advanced HCC. On the set-up: method as in ref 4 5. Particulars: patients with advanced HCC; ref 4 5; cited from earlier work.

Like-named read-outs stand apart in the source and are kept apart here.

In the case of `NC(=O)c1cc(Oc2ccc(NC(=O)Nc3ccc(Cl)c(C(F)(F)F)c3)c(F)c2)ccn1` [M-4], in data set [1], the “Plasma Tmax” value was 7 h and the “Tumor Tmax” value is 7 h. In data set [1] (po, 5 mg/kg), the “Plasma AUC” value is 363 ng·h/mL, the “Plasma AUCnorm” value amounted to 0.0749 kg·h/L, the “Plasma Cmax” value is 21.7 ng/mL and the “Plasma Tmax” value is 7 h. Moreover, in data set [1] (po, 5 mg/kg), the “Tumor AUC” value amounted to 1040 ng·h/mL, the “Tumor AUCnorm” value was 0.209 kg·h/L, the “Tumor Cmax” value came out at 52.8 µg/kg and the “Tumor Tmax” value is 4 h. In data set [1] (po, 10 mg/kg), the “Plasma AUC” value was 663 ng·h/mL, the “Plasma AUCnorm” value was determined as 0.0684 kg·h/L, the “Plasma Cmax” value was 40.5 ng/mL and the “Plasma Tmax” value worked out at 7 h. In data set [1] (po, 10 mg/kg), the “Tumor AUC” value worked out at 2100 ng·h/mL, the “Tumor AUCnorm” value amounted to 0.210 kg·h/L, the “Tumor Cmax” value is 117 µg/kg and the “Tumor Tmax” value amounted to 7 h. Moreover, in data set [1] (po, 20 mg/kg), the “Plasma AUC” value amounted to 1480 ng·h/mL, the “Plasma AUCnorm” value was determined as 0.0763 kg·h/L, the “Plasma Cmax” value came out at 124 ng/mL and the “Plasma Tmax” value came out at 7 h. In data set [1] (po, 20 mg/kg), the “Tumor AUC” value came out at 3780 ng·h/mL, the “Tumor AUCnorm” value worked out at 0.189 kg·h/L, the “Tumor Cmax” value stood at 214 µg/kg and the “Tumor Tmax” value came to 7 h.

On to `NS(=O)(=O)c1cccc2c1C(=O)c1cccc(O)c1C2=O` [LLL12], for which, in the data set on RIL-175 cells, the “CXCL10 expression in RIL-175 cells” value was “significantly increased”.

Take nivolumab: anti-PD1 antibody: the Responses in the data set on advanced HCC [2] was 14%–31%.

Regarding `CNC(=O)c1cc(Oc2ccc(NC(=O)Nc3ccc(Cl)c(C(F)(F)F)c3)cc2)ccn1` [Sorafenib], the “OS benefit over placebo” value with advanced HCC [3] is reported as “approximately 3 months”.

On to pembrolizumab: anti-PD1 antibody, for which the Responses in the data set on advanced HCC [2] is given as 14%–31%.

These data come from paper PMC7689089, “Regorafenib combined with PD1 blockade increases CD8 T-cell infiltration by inducing CXCL10 expression in hepatocellular carcinoma” (Journal for Immunotherapy of Cancer, 2020).
